Measured values: US12329739B2, “Isoflavonoid compounds and methods for the treatment of cancer” (Aardvark Therapeutics, Inc., priority 2010, dated 2025)

How the values were obtained:
PC3 = test: MTT proliferation assay, PC3; format: cell-based; details: Prostate, PC3, 120 h of exposure
Procedure: (§1) Proliferation Assays. IC50 values were determined for each cell line. Cells were seeded in 96-well plates at an appropriate cell density as determined from growth kinetics analysis and cultured for 5 days in the absence and presence of the test compounds. Cell proliferation was assessed after the addition of 20 μl of 3-4,5 dimethylthiazol-2,5-diphenyl tetrazolium bromide (MTT, 5 mg/ml in PBS, Sigma) for 5 hrs at 37° C. according to manufacturer's instructions. IC50 values were calculated from semi-log plots of % of control proliferation on the y-axis against log dose on the x-axis.
(§2) Anti-proliferative Activity of Isoflavonoid Derivatives. IC50 values were determined for each cell line after 120 h of exposure.

DU145 = test: MTT proliferation assay, DU145; format: cell-based; details: Prostate, DU145, 120 h of exposure
Procedure: as §1, §2

LNCaP = test: MTT proliferation assay, LNCaP; format: cell-based; details: Prostate, 120 h of exposure
Procedure: as §1, §2

COLO205 = test: MTT proliferation assay, COLO205; format: cell-based, human; details: CRC, COLO205, 120 h of exposure
Procedure: (§3) The human non-small cell lung adenocarcinoma lines NCI-H1299 (CRL-5803), NCI-H460 (HTB-177), NCI-H358 (CRL-5807), NCI-H838 (CRL-5844), the human colorectal adenocarcinoma lines COLO 205 (CCL-222), HCT-15 (CCL-225) and the human gastric cancer cell line NCI-N87 (CRL-5822) were cultured in RPMI 1640 medium containing 2 g/L sodium bicarbonate (Hyclone/Invitrogen) supplemented with 2 mM L-glutamine (Gibco) 1 mM sodium pyruvate (Sigma), 10 mM HEPES (Sigma) and 4500 mg/L glucose (Sigma). The human non-small cell lung adenocarcinoma line NCI-H2126 (CCL-256) was cultured in DMEM:F12(1:1) (Hyclone/Invitrogen) containing 2.5 mM L-glutamine 2.4 g/L sodium bicarbonate supplemented with 5% fetal bovine serum (FBS), an additional 2 mM L-glutamine, 15 mM HEPES, 0.005 mg/ml insulin (Sigma), 0.01 mg/ml transferrin (Sigma), 30 nM sodium selenite (Sigma), 10 nM hydrocortisone (Sigma) and 10 nM beta-estradiol (Sigma). The human colorectal adenocarcinoma line HT-29 (HTB-38) and the human gastric cancer cell lines OE-19 (#96071721) and MKN1 (JCRB0252) were cultured in RPMI 1640 media supplemented with 2 mM L-glutamine.
as §1, §2

A2780 = test: MTT proliferation assay, A2780; format: cell-based; details: Ovarian, A2780, 120 h of exposure
Procedure: as §1, §2

R-182 = test: MTT proliferation assay, R-182; format: cell-based; details: Ovarian, R-182, 120 h of exposure
Description: Tissue culture. The multidrug resistant primary epithelial ovarian cancer cell line R-182 TARA was a gift from Dr. Gil Mor (Yale University, New Haven, CT, USA). This cell line was derived by explant from ovarian tumors and cultured as previously described. All other cell lines were purchased from American Type Culture Collection (ATCC, Manassas, VA, USA) with the exception of MKN1, HuH-7, JHH-1, which were purchased from the Japanese Collection of Research Bioresources (JCRB, Osaka, Japan), and OE19 which was purchased from the European Collection of Cell Cultures (ECACC, Salisbury, UK).
as §1, §2

CP70 = test: MTT proliferation assay, CP70; format: cell-based; details: Ovarian, CP70, 120 h of exposure
Procedure: as §1, §2

NCI-H460 = test: MTT proliferation assay, NCI-H460; format: cell-based, human; details: NSCLC, NCI-H460, 120 h of exposure
Procedure: as §3, §1, §2

A549 = test: MTT proliferation assay, A549; format: cell-based; details: NSCLC, A549, 120 h of exposure
Procedure: as §1, §2

CALU3 = test: MTT proliferation assay, CALU3; format: cell-based; details: NSCLC, CALU3, 120 h of exposure
Procedure: as §1, §2

HepG2 = test: MTT proliferation assay, HepG2; format: cell-based, human; details: Liver, HepG2, 120 h of exposure
Procedure: (§4) The human hepatocellular carcinoma lines HepG2 (HB-8065), SK-HEP-1 (HTB-52) and the normal human lung fibroblast line IMR-90 (CCL-186) were cultured in Minimum Essential Eagles Medium containing 2 mM L-glutamine, 2.2 g/L sodium bicarbonate, supplemented with 1 mM sodium pyruvate and 0.1 mM non-essential amino acids. The human hepatocellular carcinoma line JHH-1 (JCRB1062) was cultured in Williams E Medium (Invitrogen) containing 2.2 g/L sodium bicarbonate, supplemented with 2 mM L-glutamine. The hepatocellular carcinoma line HuH-7 (JCRB0403) was cultured in DMEM, supplemented with 2 mM L-glutamine.
as §1, §2

SK-Hep-1 = test: MTT proliferation assay, SK-Hep-1; format: cell-based, human; details: Liver, SK-Hep-1, 120 h of exposure
Procedure: as §4, §1, §2

HuH-7 = test: MTT proliferation assay, HuH-7; format: cell-based, human; details: Liver, HuH-7, 120 h of exposure
Procedure: as §4, §1, §2

A2058 = test: MTT proliferation assay, A2058; format: cell-based; details: Melanoma, A2058, 120 h of exposure
Procedure: as §1, §2

4405 = test: MTT proliferation assay, 4405; format: cell-based; details: Melanoma, 4405, 120 h of exposure
Procedure: as §1, §2

MDA-MB-468 = test: MTT proliferation assay, MDA-MB-468; format: cell-based, human; details: Breast, MDA-MB-468, 120 h of exposure
Procedure: The human gastric cancer cell line AGS (CRL-1739) was cultured in Hams F-12K (Kaighans modification) medium containing 2 mM L-glutamine, 2.5 g/L sodium bicarbonate and 2 mM sodium pyruvate. The human breast adenocarcinoma line MDA-MB-468 (HTB-132) was cultured in DMEM:F12 (1:1) medium containing 2.5 mM L-glutamine, 2.4 g/L sodium bicarbonate, supplemented with an additional 2 mM L-glutamine.
as §1, §2

MM200 = test: MTT proliferation assay, MM200; format: cell-based; details: Melanoma, MM200, 120 h of exposure
Procedure: as §1, §2

SKBR-3 = test: MTT proliferation assay, SKBR-3; format: cell-based, human; details: Breast, SKBR-3, 120 h of exposure
Procedure: The human colorectal adenocarcinoma line HCT-116 (CCL-247) and the human breast adenocarcinoma line SK-BR-3 (HTB-30) were cultured in McCoy's 5a Medium (Invitrogen) containing 1.5 mM L-glutamine and 2.2 g/L sodium bicarbonate. The human colorectal adenocarcinoma line SW620 (CCL-227) was cultured in Leibovitz's L-15 Medium (Invitrogen) containing 2.05 mM L-glutamine.
as §1, §2

[1] = Homo sapiens, MDA-MB-468, 120 h

Compound | IC50 (PC3) [nM] | IC50 (DU145) [nM] | IC50 (LNCaP) [nM] | IC50 (PC3; Homo sapiens, PC-3, 120 h) [nM] | IC50 (DU145; Homo sapiens, DU-145) [nM] | IC50 (LNCaP; Homo sapiens) [nM] | IC50 (COLO205; Homo sapiens, COLO 205) [nM] | IC50 (A2780; Homo sapiens, A2780, 120 h) [nM] | IC50 (NCI-H460; Homo sapiens) [nM] | IC50 (A549; Homo sapiens) [nM] | IC50 (CALU3; Homo sapiens, Calu-3) [nM] | IC50 (HepG2; Homo sapiens) [nM] | IC50 (SK-Hep-1; Homo sapiens, SK-HEP1) [nM] | IC50 (HuH-7; Homo sapiens) [nM] | IC50 (MDA-MB-468; [1]) [nM] | IC50 (R-182) [nM] | IC50 4405 [nM] | IC50 (MM200) [nM] | IC50 (CP70; 120 h) [nM] | IC50 (A2058; Homo sapiens, A2058, 120 h) [nM] | further results
Cc1cc([C@H]2c3ccc(O)c(C)c3OC[C@H]2c2ccc(O)cc2)ccc1O (relative stereo) [d-6, d-cis-3-(4-hydroxyphenyl)-4-(4-hydroxy-3-methylphenyl)-8-methylchroman-7-ol] | 150 to 500 | 150 to 500 | 150 to 500 | – | – | – | – | – | – | – | – | – | – | – | – | ≤ 150 | 150 to 500 | – | – | – | IC50 (COLO205): 1600 to 10000 nM; IC50 (A2780): 150 to 500 nM; IC50 (CP70): 150 to 500 nM; IC50 (NCI-H460): 150 to 500 nM; IC50 (A549): 150 to 500 nM; IC50 (CALU3): 150 to 500 nM; IC50 (HepG2): ≤ 150 nM; IC50 (SK-Hep-1): ≤ 150 nM; IC50 (HuH-7): 150 to 500 nM; IC50 (A2058): ≤ 150 nM; IC50 (MDA-MB-468): ≤ 150 nM
Cc1c(O)ccc2c1OCC(c1ccc(O)cc1)C2c1ccc(O)cc1 (stereo not drawn) [Compound 5, 3-(4-hydroxyphenyl)-4-(4-hydroxyphenyl)-8-methylchroman-7-ol] | – | – | – | 150 to 500 | 150 to 500 | 150 to 500 | 1600 to 10000 | 150 to 500 | 150 to 500 | 150 to 500 | ≤ 150 | ≤ 150 | 150 to 500 | 150 to 500 | 150 to 500 | 150 to 500 | 150 to 500 | 150 to 500 | ≤ 150 | ≤ 150 | IC50 (SKBR-3; Homo sapiens, SK-BR-3, 120 h): ≤ 150 nM
Cc1cc(C2c3ccc(O)c(C)c3OCC2c2ccc(O)cc2)ccc1O (stereo not drawn) [Compound 6, 3-(4-hydroxyphenyl)-4-(4-hydroxy-3-methylphenyl)-8-methylchroman-7-ol] | – | – | – | 150 to 500 | 150 to 500 | 510 to 1500 | 1600 to 10000 | 150 to 500 | 150 to 500 | 510 to 1500 | 150 to 500 | 150 to 500 | 150 to 500 | 150 to 500 | 150 to 500 | 150 to 500 | 150 to 500 | 510 to 1500 | 510 to 1500 | 150 to 500 | IC50 (SKBR-3; Homo sapiens, SK-BR-3, 120 h): ≤ 150 nM

Now from value to molecule, other results behind:

IC50 (PC3) [nM] | IC50 (DU145) [nM] | IC50 (LNCaP) [nM] | IC50 (PC3; Homo sapiens, PC-3, 120 h) [nM] | IC50 (DU145; Homo sapiens, DU-145) [nM] | IC50 (LNCaP; Homo sapiens) [nM] | IC50 (COLO205; Homo sapiens, COLO 205) [nM] | IC50 (A2780; Homo sapiens, A2780, 120 h) [nM] | IC50 (NCI-H460; Homo sapiens) [nM] | IC50 (A549; Homo sapiens) [nM] | IC50 (CALU3; Homo sapiens, Calu-3) [nM] | IC50 (HepG2; Homo sapiens) [nM] | IC50 (SK-Hep-1; Homo sapiens, SK-HEP1) [nM] | IC50 (HuH-7; Homo sapiens) [nM] | IC50 (MDA-MB-468; [1]) [nM] | Compound | IC50 (R-182) [nM] | IC50 4405 [nM] | IC50 (MM200) [nM] | IC50 (CP70; 120 h) [nM] | IC50 (A2058; Homo sapiens, A2058, 120 h) [nM] | further results
≥ 10000 | ≥ 10000 | ≥ 10000 | – | – | – | – | – | – | – | – | – | – | – | – | Cc1cc([C@H]2c3ccc(O)c(C)c3OC[C@H]2c2ccc(O)cc2)ccc1O (relative stereo) [l-6, l-cis-3-(4-hydroxyphenyl)-4-(4-hydroxy-3-methylphenyl)-8-methylchroman-7-ol] | ≥ 10000 | ≥ 10000 | ≥ 10000 | – | – | IC50 (COLO205): ≥ 10000 nM; IC50 (A2780): ≥ 10000 nM; IC50 (CP70): ≥ 10000 nM; IC50 (NCI-H460): ≥ 10000 nM; IC50 (A549): ≥ 10000 nM; IC50 (CALU3): ≥ 10000 nM; IC50 (HepG2): ≥ 10000 nM; IC50 (SK-Hep-1): ≥ 10000 nM; IC50 (HuH-7): ≥ 10000 nM; IC50 (A2058): ≥ 10000 nM; IC50 (MDA-MB-468): ≥ 10000 nM; IC50 (SKBR-3): 1600 to 10000 nM
– | – | – | 510 to 1500 | 510 to 1500 | 1600 to 10000 | ≥ 10000 | 510 to 1500 | 1600 to 10000 | 1600 to 10000 | 1600 to 10000 | 510 to 1500 | 1600 to 10000 | 510 to 1500 | 150 to 500 | COc1ccc([C@H]2c3ccc(O)c(C)c3OC[C@H]2c2ccc(O)cc2)cc1C [d-7, d-cis-3-(4-hydroxyphenyl)-4-(4-methoxy-3-methylphenyl)-8-methylchroman-7-ol] | 510 to 1500 | 1600 to 10000 | – | 510 to 1500 | 510 to 1500 | –
– | – | – | ≥ 10000 | ≥ 10000 | ≥ 10000 | ≥ 10000 | ≥ 10000 | ≥ 10000 | ≥ 10000 | ≥ 10000 | ≥ 10000 | ≥ 10000 | ≥ 10000 | ≥ 10000 | COc1ccc([C@@H]2c3ccc(O)c(C)c3OC[C@@H]2c2ccc(O)cc2)cc1C [l-7, l-cis-3-(4-hydroxyphenyl)-4-(4-methoxy-3-methylphenyl)-8-methylchroman-7-ol] | ≥ 10000 | ≥ 10000 | – | ≥ 10000 | ≥ 10000 | –
